The values below come from patent publication US6447749B1, “Perfluoro-alkyl containing dye molecules and galencial formulations” (Schering Aktiengesellschaft, priority 1999, dated 2002).

The subject of the assay is popliteal lymph node. Description: Localization in lymph nodes by fluorescence microscopy on frozen sections. The format is in vivo. To be noted: guinea pig popliteal lymph node; four hours after interstitial administration; formulation 5 mol % of dye 8/95 mol % Gd complex; untreated animals no fluorescence. The protocol:
The localization of the formulations according to the invention in lymph nodes was studied by fluorescence microscopy on frozen sections of the lymph nodes. In this respect, the lymph nodes were prepared after the lymphography and deep-frozen at −80° C. Sections with a 5 μm thickness were produced on a freezing microtome. The evaluation was carried out on a Zeiss Axiovert 135-fluorescence microscope, which was equipped with a Cy 7-(excitation filter HQ710/70 nm, emission filter 810/90 nm, beam splitter 750 nm LP). From all the preparations, white light and fluorescence images were recorded with a CCD camera (Princeton Instruments RTE/CCD-576) and stored digitally.
Images of a cryosection from a popliteal lymph node of an untreated guinea pig in bright field (3c) and in near-infrared-fluorescence (3d) are shown for comparison.

Turning to `CC1(C)C(=CC=CC=CC=CC2=[N+](CCCCS(=O)(=O)[O-])c3ccc(C(=O)N(CCOCCC(F)(F)C(F)(F)C(F)(F)C(F)(F)C(F)(F)C(F)(F)C(F)(F)C(F)(F)F)CC(O)CO)cc3C2(C)C)N(CCCCS(=O)(=O)[O-])c2ccccc21.[Na+]` (stereo not shown) [Dye 10, 5-{N-[2-(3,3,4,4,5,5,6,6,7,7,8,8,9,9,10,10,10-heptadecafluorodecyloxy)ethyl]-N-(2,3-dihydroxypropyl)aminocarbonyl}-2-{7-[1,3-dihydro-3,3-dimethyl-1-(4-sulfobutyl)-2H-indol-2-ylidene]-1,3,5-heptatrienyl}-3,3-dimethyl-1-(4-sulfobutyl)-3H-indolium, internal salt, sodium salt], the “near-infrared fluorescence of lymph node frozen sections” value is recorded as “pronounced fluorescence”.
